Results taken from the NIST ThermoML archive (doi:10.1016/j.jct.2004.09.009).
Numbers after ± are expanded uncertainties.

What was measured:
[1] = Liquid; for mass density: 298.15 K, 101.33 kPa, Vibrating tube method; for Normal boiling temperature / vapor or sublimation pressure: Ebulliometric method (Recirculating still)
[2] = xn = mol fraction of the nth substance listed; details: 101.3 kPa, Liquid, x2 = 0

COC(=O)OC [dimethyl carbonate]
[1]
Details	Normal boiling temperature [°C]	mass density [kg/m3]
–	90.31 ± 0.03	1063.36 ± 0.29

CC1CCCCC1 [methylcyclohexane]
[1]
Details	Normal boiling temperature [°C]	mass density [kg/m3]
–	100.92 ± 0.03	764.98 ± 0.24

[1]
Details	vapor or sublimation pressure [kPa]
352.46 K	53.32 ± 0.07
356.26 K	59.98 ± 0.07
359.62 K	66.64 ± 0.08
362.83 K	73.31 ± 0.09
365.81 K	79.97 ± 0.09
368.47 K	86.64 ± 0.1
370.99 K	93.3 ± 0.11
371.98 K	95.97 ± 0.11
373.08 K	98.63 ± 0.11
374.07 K	101.3 ± 0.12
374.95 K	103.97 ± 0.12
375.86 K	106.63 ± 0.12
378.04 K	113.3 ± 0.13
380.12 K	119.96 ± 0.14
382.12 K	126.63 ± 0.14
384.05 K	133.29 ± 0.15
385.89 K	139.95 ± 0.16
387.59 K	146.62 ± 0.17
389.36 K	153.28 ± 0.17
391.04 K	159.95 ± 0.18
392.8 K	166.61 ± 0.19
394.38 K	173.28 ± 0.2
395.87 K	179.94 ± 0.2
397.33 K	186.61 ± 0.21
398.76 K	193.27 ± 0.22
400.12 K	199.93 ± 0.22
401.45 K	206.6 ± 0.23
402.8 K	213.26 ± 0.24
404.1 K	219.93 ± 0.24
405.35 K	226.59 ± 0.25
406.56 K	233.26 ± 0.26
407.66 K	239.92 ± 0.27
408.9 K	246.59 ± 0.27
409.98 K	253.25 ± 0.28

CC1CCCCC1 [methylcyclohexane] + CCOC(=O)OCC
[2]
Details	mass density [kg/m3]
293.15 K	769.3 ± 0.74
298.15 K	764.98 ± 0.74
303.15 K	760.65 ± 0.75
308.15 K	756.29 ± 0.76
313.15 K	751.93 ± 0.76

CC(C)O [propan-2-ol]
[1]
Details	Normal boiling temperature [°C]	mass density [kg/m3]
–	82.46 ± 0.02	780.87 ± 0.13

[1]
Details	vapor or sublimation pressure [kPa]
345.46 K	66.64 ± 0.06
347.71 K	73.31 ± 0.06
349.79 K	79.97 ± 0.07
351.72 K	86.64 ± 0.07
353.54 K	93.3 ± 0.08
354.01 K	95.04 ± 0.08
355.25 K	99.97 ± 0.08
355.61 K	101.3 ± 0.08
356.27 K	103.97 ± 0.08
356.9 K	106.63 ± 0.09
358.45 K	113.3 ± 0.09
359.91 K	119.96 ± 0.1
361.29 K	126.63 ± 0.1
362.65 K	133.29 ± 0.1
363.94 K	139.95 ± 0.11
365.2 K	146.62 ± 0.11
366.38 K	153.28 ± 0.12
367.56 K	159.95 ± 0.12
368.65 K	166.61 ± 0.12
369.76 K	173.28 ± 0.13
371.81 K	186.61 ± 0.13
372.8 K	193.27 ± 0.14
373.76 K	199.93 ± 0.14
374.69 K	206.6 ± 0.15
375.57 K	213.26 ± 0.15
376.46 K	219.93 ± 0.16
377.29 K	226.59 ± 0.16
378.13 K	233.26 ± 0.17
378.93 K	239.92 ± 0.17
379.71 K	246.59 ± 0.18
380.45 K	253.25 ± 0.19
381.17 K	259.91 ± 0.19
381.89 K	266.58 ± 0.17
382.8 K	273.24 ± 0.17
383.48 K	279.91 ± 0.21
384.11 K	286.57 ± 0.21
384.79 K	293.24 ± 0.21
385.42 K	299.9 ± 0.22
